Test results taken from patent publication US20150032088A1, “SUSTAINED DRUG DELIVERY FROM SOLID STATE COMPOSITIONS WITH NANOCHANNEL MEMBRANES” (priority 2012, published 2015).

Legend:
Assay type in all cases: physicochemical
[1] = Levothyroxine release from capsule with 3 nm nanochannel membrane into sink solution; conditions: powder, 2 separate experiments (019, 040)
Source text: The implantable capsule comprising one or more nanochannel membranes were fabricated according to US 2010/0152699 and PCT/US2009/064376. The nanochannel membranes present nanochannels ranging in sizes between 3 and 50 nm. The nanochannel membranes (FIG. 2A) were produced in 29 configurations presenting different constant rates of delivery. Custom diffusion devices (FIG. 2B) were utilized for measuring the amount of drug released from nanochannel membrane devices using UV-spectroscopy, as described in Grattoni et al., Lab on a Chip 10:3074-3083 (2010) and Grattoni et al., Anal. Chem. 83:3096-3103 (2011). A linear standard curve relating UV absorbance and concentration of diffused substance was obtained at a wavelength of 250 nm and used for the release test of testosterone. A linear standard curve relating UV absorbance and concentration of diffused substance was obtained at a wavelength of 240 nm and used for the release test of levothyroxine. […]
PEEK capsules were loaded with 852 and 875 μL of Millipore water and 17.1 mg of powder. […] For the release measurement, a UV-Vis absorbance versus concentration standard curve was prepared. The absorbance was measured at 240 nm. The sampling method consisted of removing 1.5 mL of the sink solution, measuring the absorbance, and returning the sample to the bottle. […]

[2] = Preliminary release of testosterone from solid pellets through 3 nm nanochannel membrane (UV absorbance)
Procedure: In a preliminary experiment, the nanochannel implant was loaded with degradable testosterone pellets immersed in DI water. The amount of DI water inserted in the capsule was approximately 700 μL.

[3] = Second long-term testosterone release experiment, capsule with 40 nm membrane into sink solution; conditions: pellet formulation (Testopel), 40 nm nanochannel membrane
Source text: The second long-term testosterone release experiment was run with the same setup and measurement method. In this case, 40 nm membranes with 8 μm wide and 1 μm long nanochannels were used for both testosterone formulations. The nanochannel membrane was fabricated by NanoMedical Systems, Inc., Austin Tex. by using the fabrication methods as described in PCT/US2009/064376. In general, the nanochannel membrane was fabricated with microfabrication techniques by employing a sacrificial layer technique, to obtain precise nanochannels parallel to the membrane surface and connected to the membrane inlet and outlet by means of sets of microchannels.
Testosterone powder and pellet (26 and 24.7 mg, respectively) were weighted into PEEK capsules. Both capsules were filled with 900 μL and dropped into 90 mL of Millipore water. The sampling measurement was performed every other day with the same method described above.

[4] = First long-term testosterone release experiment, capsule with 3 nm membrane into sink solution; conditions: pellet formulation (Testopel), 3 nm nanochannel membrane, 37° C.
Procedure: In the first long-term testosterone release experiment, two testosterone formulations, powder and pellet (Testopel), were used. The release experiment was performed from a capsule into a bottle containing the recipient sink solution. A 3 nm membrane was used for each testosterone formulation and assembled within the capsule. Each nanochannel presented a width of 5 μm and a length of 3 μm. The nanochannel membrane was fabricated by NanoMedical Systems, Inc., Austin Tex. by using the fabrication methods as described in PCT/US2009/064376. In general, the nanochannel membrane was fabricated with microfabrication techniques by employing a sacrificial layer technique, to obtain precise nanochannels parallel to the membrane surface and connected to the membrane inlet and outlet by means of sets of microchannels.
The total number of nanochannel per membrane is equal to 118496. Testosterone powder (21.2 mg) was weighted into the titanium capsule, which was filled with 791 μL of Millipore water. […] For the release measurement of both testosterone conformations, a UV-Vis absorbance versus concentration standard curve was prepared. The testosterone solutions were sampled every other day and the UV absorbance was measured at a wavelength of 250 nm. The sampling method consisted of removing 1.5 mL of the sink solution, measuring the absorbance, and returning the sample to the bottle. […]

Row | SMILES | duration of continuous and constant release of levothyroxine [1] | approximate daily release rate of levothyroxine ([1]; 37° C.) | duration of constant release of testosterone ([2]; solid pellets) | release rate of testosterone ([2]; solid pellets (24 mg testosterone) in DI water) | duration of constant (linear) delivery of testosterone [3] | duration of constant (linear) delivery of testosterone [4]
1 | N[C@@H](Cc1cc(I)c(Oc2cc(I)c(O)c(I)c2)c(I)c1)C(=O)O.O.O.O.O.O.[Na] [levothyroxine, L-thyroxine sodium pentahydrate] | 17 days | ~500 µg/day | – | – | – | –
2 | C[C@]12CC[C@H]3[C@@H](CCC4=CC(=O)CC[C@@]43C)[C@@H]1CC[C@@H]2O [testosterone] | – | – | 13 days | 5 µg/day | over 160 days | over 180 days
